Source: ChEMBL document CHEMBL3994663, “Iminosugar-based ceramide mimicry for the design of new CERT START domain ligands” (Bioorg Med Chem, 2017)

Biological target: T1, Ceramide transfer protein (Homo sapiens) (UniProt Q9Y5P4)
T1 sequence (whole entry): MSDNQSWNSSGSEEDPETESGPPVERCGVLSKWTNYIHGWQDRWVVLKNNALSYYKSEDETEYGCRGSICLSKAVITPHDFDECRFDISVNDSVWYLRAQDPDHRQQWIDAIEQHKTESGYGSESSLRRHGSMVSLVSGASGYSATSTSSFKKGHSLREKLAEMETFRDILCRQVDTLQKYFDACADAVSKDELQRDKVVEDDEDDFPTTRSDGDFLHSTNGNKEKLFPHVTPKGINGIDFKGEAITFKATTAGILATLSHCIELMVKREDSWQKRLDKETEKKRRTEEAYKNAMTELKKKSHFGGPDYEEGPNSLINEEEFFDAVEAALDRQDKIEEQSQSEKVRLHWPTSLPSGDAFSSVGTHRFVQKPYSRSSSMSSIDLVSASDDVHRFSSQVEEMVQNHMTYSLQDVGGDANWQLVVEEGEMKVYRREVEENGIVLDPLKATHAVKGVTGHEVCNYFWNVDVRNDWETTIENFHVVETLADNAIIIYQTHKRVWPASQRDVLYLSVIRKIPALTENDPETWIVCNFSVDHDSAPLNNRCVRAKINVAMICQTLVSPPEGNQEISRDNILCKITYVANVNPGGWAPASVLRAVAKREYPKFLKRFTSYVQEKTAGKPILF
Test: Inhibition of fluorescent ceramide probe binding to recombinant His-tagged START domain of CERT (unknown origin) assessed as bound fluorescent ceramide probe level at 200 pmol preincubated for 30 mins followed by ceramide probe addition after 30 mins by FLINT assay (reference value: 28.4 +/- 2.75%)
Design: scale not given: the % may be the effect or the level left

| Structure (SMILES) | Activity |
| --- | --- |
| CCCCCCCCCCCCN1C[C@@H](O)[C@H](O)[C@@H](O)C1 | 48% |
| CCCCCCCCCCCCO[C@@H]1CNC[C@@H](O)[C@@H]1O | 61.3% |
| O[C@H]1[C@H](O)CNC[C@@H]1O | 36.6% |
| CCCCCCCCCCCCO[C@H]1CNC[C@@H](O)[C@@H]1O | 41% |

Results, then the molecule that gave them:

| Activity | Structure (SMILES) |
| --- | --- |
| 54.3% | CCCCCCCCCCCCO[C@@H]1CN(CCCCCCCCCCCC)C[C@@H](O)[C@@H]1O |
| 51.1% | CCCCCCCCCCCCO[C@H]1CNC[C@@H](OCCCCCCCCCCCC)[C@@H]1O |
| 30.1% | CCCCCCCCCCCCO[C@H]1CN(CCCCCCCCCCCC)C[C@@H](O)[C@@H]1O |
| 25.5% | CCCCCCCCCCCC(=O)N[C@@H](CO)C[C@H](O)c1ccccc1 |
